These compounds were tested against SARS-COV-2 3CLpro (having a P132H mutation, 3CLpro^P132H) (Severe acute respiratory syndrome coronavirus 2, UniProt P0DTD1, P3395H).
Type: biochemical

**Q.** For `CC(=O)N1CCc2c(sc3c2c(=O)n(-c2ccccc2)c(=O)n3CC(=O)c2ccc(F)cc2)C1` [D22, CC(=O)N1CCc2c(sc3c2c(=O)n(-c2ccccc2)c(=O)n3CC(=O)c2ccc(F)cc2)C1], which “Inhibition Rate ([Cpd.]=40 uM)” value is on record?
**A.** < 0.5

**Q.** `NC(=O)C[C@H]1CN(C(=O)COc2ncccn2)C[C@H]1OC(=O)c1ccccc1` [E17, NC(=O)C[C@H]1CN(C(=O)COc2ncccn2)C[C@H]1OC(=O)c1ccccc1] was tested. Which “Inhibition Rate ([Cpd.]=40 uM)” value did it give?
**A.** < 0.5

**Q.** Which “Inhibition Rate ([Cpd.]=40 uM)” value does the source give for `CCN(CC)C(=O)c1sc2c(c1C)c(=O)n(-c1ccccc1)c(=O)n2Cc1cccc(Cl)c1` [E15, CCN(CC)C(=O)c1sc2c(c1C)c(=O)n(-c1ccccc1)c(=O)n2Cc1cccc(Cl)c1] here?
**A.** < 0.5

**Q.** For `CCOc1ccc(N(Cc2nnc3n2CCCCC3)C(=O)Nc2ccc(C)cc2)cc1` [E12, CCOc1ccc(N(Cc2nnc3n2CCCCC3)C(=O)Nc2ccc(C)cc2)cc1], which “Inhibition Rate ([Cpd.]=40 uM)” value is on record?
**A.** < 0.5

**Q.** How did the “Inhibition Rate ([Cpd.]=40 uM)” value turn out when `O=C(c1ccco1)N1CCC[C@H](n2c(=O)n(Cc3ccccc3)c3cccnc32)C1` [D18, O=C(c1ccco1)N1CCC[C@H](n2c(=O)n(Cc3ccccc3)c3cccnc32)C1] was run?
**A.** < 0.5

Reference: publication PMC10444862, “Using macromolecular electron densities to improve the enrichment of active compounds in virtual screening” (Communications Chemistry, 2023)
